The test system of data set [1] is T. cruzi (Tulahuen trypomastigotes overexpressing β-galactosidase) in Vero cells. Description: T. cruzi inhibition assay, infection model in Vero cells, β-galactosidase activity. Format: cell-based, Trypanosoma cruzi. Conditions: 50 μM, 72 h p.i.
Data set [2] deals with T1, CZP (Trypanosoma cruzi, UniProt P25779).
T1 construct: gift of Allison Doak and Prof; Brian Shoichet (University of California San Francisco)
Put plainly: Aggregation assays (Triton X-100 sensitivity, BSA preincubation) on CZP. Format: biochemical, T. cruzi. The conditions noted are these: for CZP activity inhibition percentage, Triton 0% + BSA: compound at its IC50, 10-min preincubation with 4 mg/mL BSA; for CZP activity inhibition percentage, Triton 0% / CZP activity inhibition percentage, Triton 0.01% / CZP activity inhibition percentage, Triton 0.1%: compound at its IC50, 10 min preincubation. The method, then: Aggregation Assays. To evaluate detergent sensitivity, CZP was pre-incubated with compounds at their IC50 for 10 min at room temperature in varying concentrations of Triton X-100 (0%, 0.1% and 0.01%). […] For comparison, the four conditions were assayed in parallel. Aggregation was excluded when the difference in inhibition percentages between the different conditions was less than 20%.

The target in data set [3] is T1, CZP. Put plainly: Jump dilution assay on CZP. The format is biochemical, T. cruzi. Conditions: for slope of progress curve relative to control (DMSO): 10 × IC50 with 100 × [CZP] 30 min, 100× dilution, 2 h monitoring; for mode of CZP inhibition from jump dilution: in words. The method, then: Jump dilution assay. […] Fluorescence intensities were monitored continuously for 2 h.

For data set [4], the target named is T2, recombinant CZP (cruzain) (Trypanosoma cruzi, UniProt P25779).
T2 construct: gift of Allison Doak and Prof; Brian Shoichet (University of California San Francisco)
Put plainly: CZP inhibition, cleavage of fluorogenic substrate Z-FR-AMC (initial screening and IC50). The format is biochemical, T. cruzi. The method, then: The previously reported methods were followed to evaluate the in vitro activity against CZP [91, 92, 93, 94]. Allison Doak and Prof. Brian Shoichet (University of California San Francisco, San Francisco, CA, USA) generously provided recombinant CZP (cruzain). The enzyme activity was measured by monitoring the cleavage of the fluorogenic substrate Z-FR-AMC at 25 °C. Unless stated otherwise, assays were performed using 2.5 μ M of substrate ( KM = 0.5 ± 0.1 μ M) and 0.5 nM CZP in a 0.1 M sodium acetate buffer, pH 5.5, 0.01% Triton X-100 and 2 mM β -mercaptoethanol. DMSO and 1 μ M E-64 were employed as negative and positive controls, respectively, in all assays. Fluorescence was monitored at 340/440 nm (excitation/emission) over time in a Biotec 87 Synergy 2 fluorimeter at the Multiuser Laboratory of the Biochemistry and Immunology Department (UFMG, Belo Horizonte, Brazil). All assays were performed in triplicate in two independent experiments.
Initial screening. For the initial screening against CZP, compounds at 100 μ M were tested against CZP with and without a 10min pre-incubation with the enzyme. The fluorescence was monitored for 10 min at 5 s intervals. DMSO and E-64 were employed in all assays as negative and positive controls, respectively. Initial velocities of the negative control (DMSO) were compared to those in the presence of compounds to calculate the percentage of inhibition. The reported values correspond to the mean and standard error of the mean (SEM) of experiments performed in triplicate in two independent experiments.
IC50 determination. Compounds in at least eight distinct compound concentrations (400 μ M, 100 μ M, 25 μ M, 6.25 μ M, 1.5 μ M, 0.4 μ M, 0.1 μ M and 0.025 μ M) were incubated with CZP for 10 min, and once the substrate was added, the fluorescence was monitored for 10 min at 5 s intervals. IC50 curves were obtained from a non-linear fit of the inhibition values versus the logarithmic concentration of the compounds. The reported IC50 values are the mean and SEM of two independent measurements performed in triplicate.

Data set [5] has as its system T. cruzi (Tulahuen trypomastigotes overexpressing β-galactosidase) in Vero cells. Put plainly: T. cruzi inhibition assay, infection model in Vero cells, β-galactosidase activity. Format: cell-based, Trypanosoma cruzi. Conditions: for anti-T. cruzi/cytotoxicity balance in words: 50 μM (Ald-4 20 μM). The method, then:
To perform the assay, the drug screening method reported by Buckner et al. was adapted. Vero cells were seeded at 1 × 10^4 per well on 96-well culture plates in 100 μ L MEM-5% FBS. Tulahuen trypomastigotes overexpressing the E. coli β -galactosidase protein were distributed in triplicates on the plate. After a 2 h incubation at 37 °C, the culture media were extracted and replaced with fresh MEM-5% FBS with 1 μ M, 10 μ M or 50 μ M solutions of the triazole-based inhibitors, and the plate was incubated another 72 h at 37 °C. Ninety-six hours post infection, the cell culture media were removed and cells and intracellular amastigotes were lysed in 100 μ L lysis buffer (25 mM Tris pH 8, 2 mM EDTA, 2 mM DTT, 1% Triton X-100, 10% glycerol in ultrapure MQ water) for 10 min at 37 °C. Then, 100 μ L 2× reaction buffer (200 mM sodium phosphate pH 8, 2 mM MgCl2, 100 mM 2-mercaptoethanol and 1.33 mg.mL^−1 o-nitrophenyl- β -galactoside (ONPG)) was added and the reaction was allowed to proceed until a yellow color developed (1–2 h at 37 °C). The absorbance at 420 nm was measured in a Synergy HTX multi-mode microplate reader (Biotek Instruments, Winooski, VT, USA) and normalized to the value obtained for the infection in the absence of inhibitors. To determine its IC50, Ald-6 was evaluated at nine different concentrations (0.098, 0.195, 0.39, 0.78, 1.56 3.13 6.25, 12.5 and 50.0 μ M), following the same protocol. Each infection condition and inhibitor were tested in triplicates in four independent experiments.

For data set [6], the target named is T3, recombinant human cathepsin L (hCatL) (Homo sapiens, UniProt P07711).
T3 construct: purchased Sigma-Aldrich
Description: hCatL screening, cleavage of Z-FR-AMC. Format: biochemical. Conditions: for selectivity for CZP over hCatL in words: 100 μM; for inhibition at 100 µM: 10 min incubation, read-out: % hCatL inhib. The method, then: The recombinant human cathepsin L (hCatL) (Sigma-Aldrich) was activated prior to the assays. First, 10 ng/ μ L of the enzyme was incubated in the activation buffer (50 mM MES, pH 6, 1 mM EDTA, 5mM DTT) for 30 min at 37 °C. hCatL activity was measured based on the cleavage of the fluorescent substrate Z-FR-AMC in a Biotec 87 Synergy 2 fluorimeter at the Multiuser Laboratory of the Biochemistry and Immunology Department (UFMG, Brazil). The assays were executed in 96-well round bottom black plates in 50 mM MES buffer, pH 6, containing 1 mM EDTA, 5 mM DTT, 0.001% Triton-X100, 5 pg/ μ L enzyme and 25 μ M Z-FR-AMC at 37 °C. The triazole-based derivatives were tested against hCatL, at 100 μ M, with a 10 min pre-incubation with the enzyme. The initial velocities of the DMSO control were compared to those in the presence of the compounds. Assays were executed in triplicate in two independent experiments, and enzyme activity was measured for 20 min.

Another data set relates to Vero cells. Put plainly: Cytotoxicity assay, Alamar blue. Format: cell-based. The conditions noted are these: 50 μM, 96 h incubation. The method, then:
To evaluate the viability of Vero cells, the Alamar blue method was followed. First, 10^4 Vero cells/well in 100 μ L MEM-10% FBS were seeded in 96-well culture plates. After 24 h, 50 μ M inhibitor solution was added to cell monolayers and incubated for 96 h. After incubation, resazurin solution (final concentration 10 μ g·mL^−1) was added to each well, and fluorescence was measured after 2 h in a Synergy HTX multi-mode microplate reader (Biotek Instruments, Winooski, VT, USA) using the […] filters. Each condition was tested in triplicate and in at least three independent experiments.

A further data set concerns T. cruzi. Also on record: method as in PMID 18435536, PMID 9705954, PMID 20088534. Conditions: cited from earlier work.
[7] abbreviates: 100 μM, 10 min pre-incubation of the enzyme with compound, read-out: % CZP inh.
Setting [8] is: read-out: % CZP inhib. wo/inc., 100 μM, without prior incubation.

Where “and” joins values, the source holds several entries; their conditions need not be identical. Equal entries are not always repeated. Where two headings read alike, the source gives them in different places.

T1 sequence (P25779 123-337): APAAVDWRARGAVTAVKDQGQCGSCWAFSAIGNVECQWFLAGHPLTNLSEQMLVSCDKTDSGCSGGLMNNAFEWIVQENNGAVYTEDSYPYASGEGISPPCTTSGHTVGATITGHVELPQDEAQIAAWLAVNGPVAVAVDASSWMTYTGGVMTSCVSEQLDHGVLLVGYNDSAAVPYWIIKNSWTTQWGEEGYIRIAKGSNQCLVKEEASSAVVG
T2 sequence (P25779 123-337): as above
T3 sequence (P07711 114-333): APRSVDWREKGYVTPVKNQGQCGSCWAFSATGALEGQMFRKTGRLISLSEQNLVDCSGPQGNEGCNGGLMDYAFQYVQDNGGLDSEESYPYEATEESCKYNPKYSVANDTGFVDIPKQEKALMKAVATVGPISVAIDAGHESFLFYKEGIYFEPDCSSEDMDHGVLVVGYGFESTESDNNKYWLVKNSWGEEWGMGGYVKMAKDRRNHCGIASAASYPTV

In data set [1], `NCCCCC(C=O)n1cc(C(NCc2ccc3c(c2)OCO3)C2CCCCC2)nn1` (centres unmarked) [Ald-6] showed a reduction of infection of 97%. Also, at CZP [2], the “CZP activity inhibition percentage, Triton 0% + BSA” value came to 37± 3%; the “CZP activity inhibition percentage, Triton 0%” value amounted to 43± 5%; the “CZP activity inhibition percentage, Triton 0.01%” value is given as 31± 3%; the “CZP activity inhibition percentage, Triton 0.1%” value was 44± 4%. On CZP [3], the “slope of progress curve relative to control (DMSO)” value is “about 12%” and the “mode of CZP inhibition from jump dilution” value is reported as “covalent irreversible inhibition”. The inhibition at 100 µM in data set [4] (setting [7]) is 81 ± 2%. Further, in data set [4] (10 min incubation with CZP, mean ± SEM of two independent experiments, read-out: IC50 (μM) against CZP), the IC50 (in general, the midpoint of a concentration-inhibition curve) amounted to 3.3 ± 0.3 µM. Also, the inhibition at 100 µM in data set [4] (setting [8]) amounted to 18 ± 3%. Moreover, the “reduction in T. cruzi infection” value in data set [5] (1 μM) is 27%. Also, the parasite survival in data set [5] (10 μM, after 72 h of incubation) is recorded as 7%. The “anti-T. cruzi/cytotoxicity balance in words” value in data set [5] is “acceptable anti-T. cruzi/cytotoxicity balance”. For the same compound, in data set [5] (Trypanosoma cruzi, TULAHUEN, Vero, read-out: IC50^Tc), the IC50 is 3.2 ± 0.4 µM. In addition, the “IC50^Tc/IC50^CZP ratio” value in data set [5] (translation ratio) is recorded as 0.97 ± 0.16. For the same compound, in data set [6], the “selectivity for CZP over hCatL in words” value is recorded as “selective CZP inhibitors” and the inhibition at 100 µM came out at 26 ± 5%. For the same compound, the “cytotoxicity, uninfected Vero cell viability in words” value with Vero cells is listed as “low cytotoxicity”.

In turn, `O=CC(CO)n1cc(C(NCc2ccc3c(c2)OCO3)C2CCCCC2)nn1` (centres unmarked) [Ald-10] came in with a reduction of infection in data set [1] of 97%. On CZP [2], the “CZP activity inhibition percentage, Triton 0% + BSA” value worked out at 43± 2%; the “CZP activity inhibition percentage, Triton 0%” value is listed as 47± 6%; the “CZP activity inhibition percentage, Triton 0.01%” value is listed as 43± 2%; the “CZP activity inhibition percentage, Triton 0.1%” value was found to be 46± 8%. Further, at CZP [3], the “slope of progress curve relative to control (DMSO)” value is given as approximately 24% and the “mode of CZP inhibition from jump dilution” value was “covalent irreversible inhibition”. Besides, the half-maximal inhibitory concentration (IC50) in data set [4] was 3.4 ± 0.5 µM. For the same compound, the inhibition at 100 µM in data set [4] (setting [7]) worked out at 87 ± 1%. Further, the inhibition at 100 µM in data set [4] (setting [8]) was 21 ± 1%. Further, the “reduction of T. cruzi viability” value in data set [5] (10 μM) is given as 38%. Besides, the “anti-T. cruzi/cytotoxicity balance in words” value in data set [5] was “acceptable anti-T. cruzi/cytotoxicity balance”. Besides, in data set [6], the “selectivity for CZP over hCatL in words” value is “selective CZP inhibitors” and the inhibition at 100 µM is 7 ± 2%. Besides, in the data set with Vero cells, the “cytotoxicity, uninfected Vero cell viability in words” value is “low cytotoxicity”.

As for `CN1CCN(C(=O)N[C@@H](Cc2ccccc2)C(=O)N[C@H](/C=C/S(=O)(=O)c2ccccc2)CCc2ccccc2)CC1` [K777], the half-inhibitory concentration (IC50) in the data set on T. cruzi was ~10 µM and 10 µM.

Regarding `CCCCC(C(=O)COc1c(F)c(F)cc(F)c1F)n1cc([C@@](C)(NCc2ccc3ncccc3c2)C(C)C)nn1` (some centres unmarked) [Ts-370], in the data set on T. cruzi, the IC50 is 5.1 µM.

Values taken from paper PMC11396839, “Structure-Aided Computational Design of Triazole-Based Targeted Covalent Inhibitors of Cruzipain” (Molecules, 2024).
